The test system of data set [1] is Kornea, Iris und Konjunktiva. In words: eye irritation test according to EU Commission 93/21/EEC. The settings on record: rabbit; effects on cornea, iris and conjunctiva after 24, 48 and 72 hours. The class given is in vivo, Kaninchen. From the text:
(§1) Um festzustellen, ob DOP Reizungen der Augen oder der Haut hervorrufen kann, wurde am Kaninchen ein Augenreiztest und ein Hautreiztest durchgeführt, beide gemäß der Verordnung der EU-Kommission Nr. 93/21/EEC vom 27.04.1993.

Data set [2] is described as follows: acute toxicity, peroral. On the set-up: species or system Ratte. The settings on record: in vivo, po, rat. The protocol: Die akute Toxizität von DOP wurde peroral an der Ratte bestimmt; die letale Dosis, bei der 50% der Versuchstiere verenden (LD50), beträgt mehr als 2000 mg/kg.
The test system of data set [3] is Haut. The experiment in a line: skin irritation test according to EU Commission 93/21/EEC. As to conditions: rabbit; after 24, 48 and 72 hours. The data set is classed as in vivo, Kaninchen.
From the text: as §1

This note sets out measurements from patent EP1000624A1, “Use of DOP as antioxidant, anti-ageing additive and medicament” (priority 1998, dated 2000).

As a reminder, the LD50 is the dose expected to kill half of the subjects tested. Low values mean greater toxicity, high ones lower toxicity.

As for `O=[PH]1Oc2ccccc2-c2ccccc21` (stereo not shown) [DOP, (6H)-Dibenz-(c,e)(1,2)-oxaphosphorin-6-on], the “Augenreiztest: Einstufung” value in data set [1] was “nicht augenreizend”. In data set [2], the 50% lethal dose (LD50) is over 2000 mg/kg. Moreover, in data set [3], the “Hautreiztest: Einstufung” value is on record as “nicht hautreizend” and the “Hautreiztest: Erythembildung / Oedembildung” value is “weder eine Erythembildung noch eine Oedembildung”.
